Values of other authors in US12102063B2 (SYNEXIS LLC, priority 2017, dated 2024).

Columns and labels:
Salmonella = settings: […] solution with vacuum and surfactant; cited from earlier work
[1] = test system: bacterial counts on eggshells; settings: 3% solution combined with ultraviolet light; cited from earlier work
Salmonella typhimurium = settings: eggs dipped twice in 6% H2O2 solution; cited from earlier work

OO [H2O2, hydrogen peroxide]
treated eggs that remained contaminated (Salmonella): 30% | reduction in bacterial counts (cfu/egg) [1]: ≤ 3 log | reduction of the number of Salmonella in eggshell membranes (Salmonella typhimurium): 95% | reduction of the numbers of positive eggs (Salmonella typhimurium): 55%
